Measurements from article PMC4138103 (PLoS ONE, 2014).
Read-outs that look alike come from different tables or passages of the source.

Test system: Sprague-Dawley rats
Assay: Organ weights
Type: in vivo, Rattus norvegicus
Set-up: key to Dose response, Ovaries weight: D: significant dose response (for results see Table 2 in the text); T: significant trend
Settings: for Emax: Rattus norvegicus; for Organ weight, Adrenals / Organ weight, Brain / Organ weight, Heart / Organ weight, Kidneys / Organ weight, Ovaries / Organ weight, Pituitary / Organ weight, Spleen / Organ weight, Thymus / Organ weight, Thyroid gland / Organ weight, Uterus: group mean
Protocol: At the end of the treatment period (males on study day 28–31, females on study day 28–32) the rats were anesthetized with CO2/O2 (70/30%). Blood samples were drawn from the left ventricle using Venoject needles (Terumo) and Vacuette EDTA and serum blood collection tubes, and the rats were killed by exsanguination. EDTA blood was used for hematology investigations (see below). Serum was separated, divided into aliquots, frozen in liquid nitrogen and stored at −70°C for further analysis (see below). A complete necropsy (macroscopic observations, tissue sampling for molecular biology, biochemistry, histopathology, analytical chemistry and organ weights) was performed on each rat. The weights of the following organs were recorded: adrenals, brain, epididymides, heart, kidneys, liver, lungs, ovaries, pituitary, prostate (ventral), seminal vesicles, spleen, testes, thymus, thyroids (with parathyroids) and uterus. For molecular biology and biochemical analyses samples from brain, liver, kidney, bones, and several other tissues were snap frozen in liquid nitrogen and stored at −80°C for further analysis. […] Tissue samples for histopathology were preserved in 10% neutral buffered formalin except testis and epididymis, which were fixed in Bouin's solution for 24 h after which they were transferred into 70% ethanol.
Data were also analyzed using the BMD method, which is based on dose-response modeling of the full data set using a nested family of exponential and Hill models. The analyses were done on data of males and females combined, using sex as a covariate. […] In that case, different Critical Effect Doses (CEDs) and CEDs at the lowest bound of the confidence interval (CED-L) were generated for each sex. If no difference between sexes is detected, a CED and CED-Ls for the combined data is generated. However, this was also done if the curve fits are close, and separate analyses for males and females were then performed manually. CEDs and CED-Ls were calculated at the predefined Critical Effect Size (CES) of 5% (EFSA standard) or 10%.

[1] = F, CES 5%, model E2, adipose tissue concentration based
[2] = F, CES 5%, model E4, adipose tissue concentration based
[3] = F, CES 10%, model E2, adipose tissue concentration based
[4] = F, CES 10%, model E4, adipose tissue concentration based
[5] = M, CES 5%, model E2, adipose tissue concentration based
[6] = M, CES 5%, model E4, adipose tissue concentration based
[7] = M, CES 10%, model E2, adipose tissue concentration based
[8] = M, CES 10%, model E4, adipose tissue concentration based
[9] = females, total dose 0-1700 mg/kg bw
[10] = females, CES 5%, total dose based
[11] = females, CES 10%, total dose based
[12] = females, adipose tissue concentration based
[13] = females, total dose 10 mg/kg bw
[14] = females, total dose 30 mg/kg bw
[15] = females, total dose 100 mg/kg bw
[16] = females, total dose 300 mg/kg bw
[17] = females, total dose 1000 mg/kg bw

Compound: Clc1cc(Cl)c(-c2cc(Cl)c(Cl)c(Cl)c2Cl)cc1Cl [PCB 180, 2,2′,3′,4,4′,5,5′-heptachlorobiphenyl]
- CED, Thyroid gland weight [1]: 3010 µg/g lipid
- CED-L, Thyroid gland weight [1]: 1698 µg/g lipid
- CED, Liver weight [2]: 512 µg/g lipid
- CED, Ovaries weight [2]: 201 µg/g lipid
- CED-L, Liver weight [2]: 263 µg/g lipid
- CED-L, Ovaries weight [2]: 31.7 µg/g lipid
- CED, Thyroid gland weight [3]: 6190 µg/g lipid
- CED-L, Thyroid gland weight [3]: 3488 µg/g lipid
- CED, Liver weight [4]: 1090 µg/g lipid
- CED, Ovaries weight [4]: 510 µg/g lipid
- CED-L, Liver weight [4]: 565 µg/g lipid
- CED-L, Ovaries weight [4]: 79.6 µg/g lipid
- CED, Thyroid gland weight [5]: 1030 µg/g lipid
- CED-L, Thyroid gland weight [5]: 720 µg/g lipid
- CED, Liver weight [6]: 42.3 µg/g lipid
- CED-L, Liver weight [6]: 19.8 µg/g lipid
- CED, Thyroid gland weight [7]: 2010 µg/g lipid
- CED-L, Thyroid gland weight [7]: 1407 µg/g lipid
- CED, Liver weight [8]: 88.4 µg/g lipid
- CED-L, Liver weight [8]: 41.3 µg/g lipid
- Emax (F, model E2, controls vs high dose according to the fitted model, read-out: Maximum response, Relative thyroid gland weight): -16.5%
- Emax (F, model E2, controls vs high dose according to the fitted model, read-out: Maximum response, Thyroid gland weight): -17.6%
- Emax (F, model E4, controls vs high dose according to the fitted model, read-out: Maximum response, Liver weight): 43.1%
- Emax (F, model E4, controls vs high dose according to the fitted model, read-out: Maximum response, Ovaries weight): 17%
- Emax (F, model E4, controls vs high dose according to the fitted model, read-out: Maximum response, Relative liver weight): 44.8%
- Emax (females, controls vs high dose, fitted model, read-out: Liver weight, Maximum response): 45%
- Emax (females, controls vs high dose, fitted model, read-out: Ovaries weight, Maximum response): 17%
- Emax (females, controls vs high dose, fitted model, read-out: Relative liver weight, Maximum response): 46.2%
- Emax (females, controls vs high dose, fitted model, read-out: Relative thyroid gland weight, Maximum response): -17%
- Emax (females, controls vs high dose, fitted model, read-out: Thyroid gland weight, Maximum response): -17.9%
- Emax (males, controls vs high dose, fitted model, read-out: Liver weight, Maximum response): 66%
- Emax (males, controls vs high dose, fitted model, read-out: Relative liver weight, Maximum response): 67%
- Emax (males, controls vs high dose, fitted model, read-out: Relative thymus weight, Maximum response): 17.1%
- Emax (males, controls vs high dose, fitted model, read-out: Relative thyroid gland weight, Maximum response): 45.2%
- Emax (F, model E5, controls vs high dose according to the fitted model, read-out: Maximum response, Relative ovaries weight): 16%
- Emax (model E2, controls vs high dose according to the fitted model, read-out: Maximum response, Relative thymus weight): 17.6%
- Emax (model E2, controls vs high dose according to the fitted model, read-out: Maximum response, Relative thyroid gland weight): 45.7%
- Emax (model E2, controls vs high dose according to the fitted model, read-out: Maximum response, Thyroid gland weight): 41.9%
- Emax (model E4, controls vs high dose according to the fitted model, read-out: Maximum response, Liver weight): 65%
- Emax (model E4, controls vs high dose according to the fitted model, read-out: Maximum response, Relative liver weight): 66%
- Thyroid weight, max. decrease (females): 18%
- Dose response, Ovaries weight [9]: D
- Dose response, Thyroid gland weight [9]: D, T
- Liver weight, CED [10]: 225 mg/kg bw
- Liver weight, CED-L [10]: 188 mg/kg bw
- Ovaries weight, CED [10]: 46.8 mg/kg bw
- Ovaries weight, CED-L [10]: 6.15 mg/kg bw
- Thyroid gland weight, CED [10]: 443 mg/kg bw
- Thyroid gland weight, CED-L [10]: 257 mg/kg bw
- Liver weight, CED [11]: 439 mg/kg bw
- Liver weight, CED-L [11]: 368 mg/kg bw
- Ovaries weight, CED [11]: 120 mg/kg bw
- Ovaries weight, CED-L [11]: 15.4 mg/kg bw
- Thyroid gland weight, CED [11]: 910 mg/kg bw
- Thyroid gland weight, CED-L [11]: 528 mg/kg bw
- Liver weight, CED [12]: 512 µg/g lipid
- Ovary weight, CED [12]: 201 µg/g lipid
- Thyroid weight, CED [12]: 3010 µg/g lipid
- Liver weight, Maximum response (females, controls vs high dose, fitted model): 44.6%
- Organ weight, Adrenals (females, total dose 3 mg/kg bw): 0.0648 g
- Organ weight, Brain (females, total dose 3 mg/kg bw): 1.60 g
- Organ weight, Heart (females, total dose 3 mg/kg bw): 0.958 g
- Organ weight, Kidneys (females, total dose 3 mg/kg bw): 1.43 g
- Organ weight, Ovaries (females, total dose 3 mg/kg bw): 0.093 g
- Organ weight, Pituitary (females, total dose 3 mg/kg bw): 0.0112 g
- Organ weight, Spleen (females, total dose 3 mg/kg bw): 0.728 g
- Organ weight, Thymus (females, total dose 3 mg/kg bw): 0.528 g
- Organ weight, Thyroid gland (females, total dose 3 mg/kg bw): 0.0202 g
- Organ weight, Uterus (females, total dose 3 mg/kg bw): 0.372 g
- Organ weight, Adrenals [13]: 0.0640 g
- Organ weight, Brain [13]: 1.59 g
- Organ weight, Heart [13]: 0.884 g
- Organ weight, Kidneys [13]: 1.46 g
- Organ weight, Ovaries [13]: 0.086 g
- Organ weight, Pituitary [13]: 0.0124 g
- Organ weight, Spleen [13]: 0.722 g
- Organ weight, Thymus [13]: 0.470 g
- Organ weight, Thyroid gland [13]: 0.0188 g
- Organ weight, Uterus [13]: 0.492 g
- Organ weight, Adrenals [14]: 0.0618 g
- Organ weight, Brain [14]: 1.61 g
- Organ weight, Heart [14]: 0.870 g
- Organ weight, Kidneys [14]: 1.45 g
- Organ weight, Ovaries [14]: 0.096 g
- Organ weight, Pituitary [14]: 0.0124 g
- Organ weight, Spleen [14]: 0.696 g
- Organ weight, Thymus [14]: 0.494 g
- Organ weight, Thyroid gland [14]: 0.0169 g
- Organ weight, Uterus [14]: 0.353 g
- Organ weight, Adrenals [15]: 0.0612 g
- Organ weight, Brain [15]: 1.62 g
- Organ weight, Heart [15]: 0.896 g
- Organ weight, Kidneys [15]: 1.46 g
- Organ weight, Ovaries [15]: 0.091 g
- Organ weight, Pituitary [15]: 0.0122 g
- Organ weight, Spleen [15]: 0.676 g
- Organ weight, Thymus [15]: 0.480 g
- Organ weight, Thyroid gland [15]: 0.0213 g
- Organ weight, Uterus [15]: 0.368 g
- Organ weight, Adrenals [16]: 0.0686 g
- Organ weight, Brain [16]: 1.60 g
- Organ weight, Heart [16]: 0.908 g
- Organ weight, Kidneys [16]: 1.45 g
- Organ weight, Ovaries [16]: 0.110 g
- Organ weight, Pituitary [16]: 0.0121 g
- Organ weight, Spleen [16]: 0.650 g
- Organ weight, Thymus [16]: 0.498 g
- Organ weight, Thyroid gland [16]: 0.0176 g
- Organ weight, Uterus [16]: 0.352 g
- Organ weight, Adrenals [17]: 0.0641 g
- Organ weight, Brain [17]: 1.59 g
- Organ weight, Heart [17]: 0.896 g
- Organ weight, Kidneys [17]: 1.49 g
- Organ weight, Ovaries [17]: 0.103 g
- Organ weight, Pituitary [17]: 0.0112 g
